# Measurements published in patent US11820773B2, “Tricyclic compounds” (ALIGOS THERAPEUTICS, INC., priority 2020, dated 2023).
# Counter-ions that a name gives are not always drawn.
# Tested on: HBV
# Experiment: HBV-DNA antiviral assay using HepG2.117 cells (intracellular HBV DNA by qPCR)
# Assay type: cell-based, genotype D HBV
# Settings: HBV DNA inhibition, 3 days incubation, 2% DMSO
# Description: The following assay procedure describes the HBV antiviral assay, using HepG2.117 cells, which carry a stably integrated genotype D HBV genome under the control of a Tet-off promoter, and intracellular HBV DNA quantification as endpoint. Cell viability is assessed in parallel by measuring the intracellular ATP content using CellTiter-Glo 2.0 (Promega).
# On day 0, HepG2.117 cells (which are maintained in routine cell culture with doxycycline present in the medium at a final concentration of 1 μg/mL) were seeded in 96-well plates (white with clear bottom) at a density of 2.0×10^4 cells/well (0.1 mL/well) in medium without doxycycline to induce pgRNA transcription and subsequent formation of HBV particles. The cells were incubated at 37° C. and 5% CO2.
# On day 1, medium was removed from each well, the test articles were diluted in culture medium without doxcycyline and 100 μL was added to cell culture wells (9 concentrations, 4-fold dilution). For each plate, 6 untreated (merely DMSO) wells were included. The final concentration of DMSO in the culture medium was 2%. Each plate was prepared in duplicate (one for HBV DNA extraction, one for CellTiter-Glo 2.0 measurement). The cells were incubated at 37° C. and 5% CO2 for 3 days.
# On day 4, cell viability was assessed using CellTiter-Glo 2.0 and cell lysates were prepared for HBV DNA extraction and subsequent quantification by qPCR.
# HBV DNA Quantification by qPCR
# Medium was removed from each well and 100 μL of 0.33% NP-40 in H2O was added to each well. Plates were sealed, incubated at 4° C. for 5 mins, vortexed extensively and centrifuged briefly. Next, 35 μL of lysate was added to 65 μL QuickExtract DNA Extraction Solution (Epicentre) in a PCR plate for each well. PCR plate was incubated at 65° C. for 6 mins, 98° C. for 2 mins and finally cooled to 4° C. HBV DNA was then quantified by qPCR with HBV-specific primers and probes as specified in Table 1 using the Bio-Rad SSOAdvanced Universal Probes Supermix on a CFX96 machine (Bio-Rad). The PCR cycle program consisted of 95° C. for 3 mins, followed by 40 cycles at 95° C. for 10 sec and 60° C. for 30 sec.
# A DNA standard was prepared by dilution of an IDT gBlock corresponding to the amplicon with concentrations ranging from 10^2 to 10^8 copies/input (i.e. per 4 μL) and used to generate a standard curve by plotting Cq values vs. HBV DNA standard concentration. The quantity of HBV DNA in each sample was determined by interpolating from the standard curve.
# Cell viability was calculated as follows: % Cell viability=(luminescence value of test sample)/(average luminescence value of 2% DMSO control)×100%. HBV DNA inhibition was calculated as follows: 100−(HBV DNA copy number of test sample)/(average HBV DNA copy number of 2% DMSO control)×100%. No normalization to entecavir was required due to the excellent dynamic window of this assay. The CC50, EC50 and EC90 values were determined by dose-response curves fitted by GraphPad Prism using “log (agonist) vs. response—Variable slope”.
row,Structure (SMILES),EC50
1,"CNC(=O)c1ccc(-n2c(=O)c3c(n4ncc(CC5CC5)c24)CN(C(=O)c2ccc(Br)c(C(F)(F)F)c2)C(C)C3)cc1 (racemic) [Compound 21a, N-methyl-4-[rac-(11R)-12-[4-bromo-3-(trifluoromethyl)benzoyl]-5-(cyclopropylmethyl)-11-methyl-8-oxo-2,3,7,12-tetrazatricyclo[7.4.0.0^2,6]trideca-1(9),3,5-trien-7-yl]benzamide]",< 50 nM
2,"CNC(=O)c1ccc(-n2c(=O)c3c(n4ncc(CC5CC5)c24)CN(C(=O)c2ccc(Br)c(C(F)(F)F)c2)C(C)C3)cc1 (racemic) [Compound 21b, N-methyl-4-[rac-(11S)-12-[4-bromo-3-(trifluoromethyl)benzoyl]-5-(cyclopropylmethyl)-11-methyl-8-oxo-2,3,7,12-tetrazatricyclo[7.4.0.0^2,6]trideca-1(9),3,5-trien-7-yl]benzamide]",50 to 500 nM

# Same assay, conditions: Hepatitis B virus, 72 h, HBV DNA inhibition, 3 days incubation, 2% DMSO
row,Structure (SMILES),EC50
1,"CC(C)[C@@H](N)C(=O)OCN(C)C(=O)c1ccc(-n2c(=O)c3c(n4ncc(CC5CC5)c24)CN(C(=O)c2ccc(Br)c(C(F)(F)F)c2)[C@@H](C)C3)cc1 (racemic) [Compound 96, [[4-[(11SR)-12-[4-bromo-3-(trifluoromethyl)benzoyl]-5-(cyclopropylmethyl)-11-methyl-8-oxo-2,3,7,12-tetrazatricyclo[7.4.0.0^2,6]trideca-1(9),3,5-trien-7-yl]benzoyl]-methyl-amino]methyl (2R)-2-amino-3-methyl-butanoate; hydrochloride]",500 to 5000 nM
2,"C[C@H]1Cc2c(n3ncc(CC4CC4)c3n(-c3ccc(C(=O)N(C)COC(=O)CN)cc3)c2=O)CN1C(=O)c1ccc(Br)c(C(F)(F)F)c1 (racemic) [Compound 97, [methyl-[4-[rac-(11S)-12-[4-bromo-3-(trifluoromethyl)benzoyl]-5-(cyclopropylmethyl)-11-methyl-8-oxo-2,3,7,12-tetrazatricyclo[7.4.0.0^2,6]trideca-1(9),3,5-trien-7-yl]benzoyl]amino]methyl 2-aminoacetate]",> 5000 nM
3,"COP(=O)(OC)OCN(C)C(=O)c1ccc(-n2c(=O)c3c(n4ncc(CC5CC5)c24)CN(C(=O)c2ccc(Br)c(C(F)(F)F)c2)[C@@H](C)C3)cc1 (racemic) [Compound 103, Dimethyl [methyl-[4-[rac-(11S)-12-[4-bromo-3-(trifluoromethyl)benzoyl]-5-(cyclopropylmethyl)-11-methyl-8-oxo-2,3,7,12-tetrazatricyclo[7.4.0.0^2,6]trideca-1(9),3,5-trien-7-yl]benzoyl]amino]methyl Phosphate]",> 5000 nM
4,"COP(=O)(O)OCN(C)C(=O)c1ccc(-n2c(=O)c3c(n4ncc(CC5CC5)c24)CN(C(=O)c2ccc(Br)c(C(F)(F)F)c2)[C@@H](C)C3)cc1 (racemic) [Compound 107, Methyl [methyl-[4-[rac-(11S)-12-[4-bromo-3-(trifluoromethyl)benzoyl]-5-(cyclopropylmethyl)-11-methyl-8-oxo-2,3,7,12-tetrazatricyclo[7.4.0.0^2,6]trideca-1(9),3,5-trien-7-yl]benzoyl]amino]methyl Hydrogen Phosphate]",> 5000 nM
5,"CNC(=O)c1ccc(-n2c(=O)c3c(n4ncc(CC5CC5)c24)CN(C(=O)c2ccc(Br)c(Cl)c2)[C@H](C)C3)cc1 (stereo in doubt) [Compound 22a, N-methyl-4-[rac-(11R)-12-[4-bromo-3-chlorobenzoyl]-5-(cyclopropylmethyl)-11-methyl-8-oxo-2,3,7,12-tetrazatricyclo[7.4.0.0^2,6]trideca-1(9),3,5-trien-7-yl]benzamide]",< 50 nM
6,"CNC(=O)c1ccc(-n2c(=O)c3c(n4ncc(CC5CC5)c24)CN(C(=O)c2ccc(Br)c(Cl)c2)[C@@H](C)C3)cc1 (stereo in doubt) [Compound 22b, N-methyl-4-[rac-(11S)-12-[4-bromo-3-chlorobenzoyl]-5-(cyclopropylmethyl)-11-methyl-8-oxo-2,3,7,12-tetrazatricyclo[7.4.0.0^2,6]trideca-1(9),3,5-trien-7-yl]benzamide]",< 50 nM
7,"CNC(=O)c1ccc(-n2c(=O)c3c(n4ncc(CC5CCC5)c24)CN(C(=O)c2ccc(Br)c(C(F)(F)F)c2)[C@H](C)C3)cc1 (stereo in doubt) [Compound 37a, N-methyl-4-[rac-(11R)-12-[4-bromo-3-(trifluoromethyl)benzoyl]-5-(cyclobutylmethyl)-11-methyl-8-oxo-2,3,7,12-tetrazatricyclo[7.4.0.0^2,6]trideca-1(9),3,5-trien-7-yl]benzamide]",< 50 nM
8,"CNC(=O)c1ccc(-n2c(=O)c3c(n4ncc(CC5CCC5)c24)CN(C(=O)c2ccc(Br)c(C(F)(F)F)c2)[C@@H](C)C3)cc1 (stereo in doubt) [Compound 37b, N-methyl-4-[rac-(11S)-12-[4-bromo-3-(trifluoromethyl)benzoyl]-5-(cyclobutylmethyl)-11-methyl-8-oxo-2,3,7,12-tetrazatricyclo[7.4.0.0^2,6]trideca-1(9),3,5-trien-7-yl]benzamide]",50 to 500 nM
9,"CNC(=O)c1ccc(-n2c(=O)c3c(n4ncc(Cc5ccccc5)c24)CN(C(=O)c2ccc(Br)c(C(F)(F)F)c2)[C@H](C)C3)cc1 (stereo in doubt) [Compound 38a, N-methyl-4-[rac-(11R)-5-benzyl-12-[4-bromo-3-(trifluoromethyl)benzoyl]-11-methyl-8-oxo-2,3,7,12-tetrazatricyclo[7.4.0.0^2,6]trideca-1(9),3,5-trien-7-yl]benzamide]",< 50 nM
10,"CNC(=O)c1ccc(-n2c(=O)c3c(n4ncc(Cc5ccccc5)c24)CN(C(=O)c2ccc(Br)c(C(F)(F)F)c2)[C@@H](C)C3)cc1 (stereo in doubt) [Compound 38b, N-methyl-4-[rac-(11S)-5-benzyl-12-[4-bromo-3-(trifluoromethyl)benzoyl]-11-methyl-8-oxo-2,3,7,12-tetrazatricyclo[7.4.0.0^2,6]trideca-1(9),3,5-trien-7-yl]benzamide]",< 50 nM
11,"C[C@@H]1Cc2c(n3ncc(Cc4ccccc4)c3n(-c3ccc(-c4nncn4C)cc3)c2=O)CN1C(=O)c1ccc(Br)c(C(F)(F)F)c1 (stereo in doubt) [Compound 39a, rac-(11R)-5-benzyl-12-[4-bromo-3-(trifluoromethyl)benzoyl]-11-methyl-7-[4-(4-methyl-1,2,4-triazol-3-yl)phenyl]-2,3,7,12-tetrazatricyclo[7.4.0.0^2,6]trideca-1(9),3,5-trien-8-one]",< 50 nM
12,"C[C@H]1Cc2c(n3ncc(Cc4ccccc4)c3n(-c3ccc(-c4nncn4C)cc3)c2=O)CN1C(=O)c1ccc(Br)c(C(F)(F)F)c1 (stereo in doubt) [Compound 39b, rac-(11S)-5-benzyl-12-[4-bromo-3-(trifluoromethyl)benzoyl]-11-methyl-7-[4-(4-methyl-1,2,4-triazol-3-yl)phenyl]-2,3,7,12-tetrazatricyclo[7.4.0.0^2,6]trideca-1(9),3,5-trien-8-one]",50 to 500 nM
13,"C[C@@H]1Cc2c(n3ncc(CC4CC4)c3n(-c3ccc(-c4nncn4C)cc3)c2=O)CN1C(=O)c1ccc(Br)c(C(F)(F)F)c1 (stereo in doubt) [Compound 40a, rac-(11R)-12-[4-bromo-3-(trifluoromethyl)benzoyl]-5-(cyclopropylmethyl)-11-methyl-7-[4-(4-methyl-1,2,4-triazol-3-yl)phenyl]-2,3,7,12-tetrazatricyclo[7.4.0.0^2,6]trideca-1(9),3,5-trien-8-one]",< 50 nM
14,"C[C@H]1Cc2c(n3ncc(CC4CC4)c3n(-c3ccc(-c4nncn4C)cc3)c2=O)CN1C(=O)c1ccc(Br)c(C(F)(F)F)c1 (stereo in doubt) [Compound 40b, rac-(11S)-12-[4-bromo-3-(trifluoromethyl)benzoyl]-5-(cyclopropylmethyl)-11-methyl-7-[4-(4-methyl-1,2,4-triazol-3-yl)phenyl]-2,3,7,12-tetrazatricyclo[7.4.0.0^2,6]trideca-1(9),3,5-trien-8-one]",50 to 500 nM
